Data reported in patent US12098129B2, “Pharmaceutical composition for treating fibrosis” (LTT BIO-PHARMA CO., LTD., priority 2018, dated 2024).
“Also recorded” adds a separate entry of the source.

Experiments:
[1] = system: BLM pulmonary injury model mouse; assay: BLM pulmonary injury model: H&E / Masson's trichrome staining, Ashcroft score, hydroxyproline; format: in vivo; conditions: for BLM-dependent pulmonary injuries: once a day day 10 to day 18, BLM 1 mg/kg, pirfenidone 200 mg/kg, nintedanib 30 mg/kg, tolperisone 5 mg/kg
[2] = system: LL29 cells (IPF patient-derived lung fibroblast cells); assay: MTT cell viability of lung fibroblast cells compared with alveolar epithelial cells; format: cell-based, human; conditions: for fibroblast cell-selective decrease in cell viability / cell death (LL29 versus A549): LL29 versus A549 cells, survived cell number; for difference in IC50 (concentration required to decrease the cell viability by 50%) between LL29 and A549 cells: screening of existing approved drugs, MTT, 24 hours, IC50 for LL29 lower than for A549
Experimental: (§1) A549 cells (human alveolar epithelial cells) and LL29 cells (IPF patient-derived lung fibroblast cells) were cultured under conditions of 37° C. and 5% CO2 by using, respectively, Dulbecco's modified Eagle's medium containing 10% FBS and Ham's F-12K (Kaighn's) medium containing 15% FBS.
(§2) The number of living cells was measured by an MTT method or trypan blue staining using Countess (trademark) Automated Cell Counter (Invitrogen, Carlsbad, CA). For evaluation of cell death, LDH activity in the medium was measured in accordance with the protocol of the assay kit.
For a specific method, IPF patient-derived lung fibroblast cells (LL29 cells) and human alveolar epithelial cells (A549 cells) were treated with existing approved drugs, and the cell viability 24 hours later was evaluated by an MTT method.
As with (b-1) above, IPF patient-derived lung fibroblast cells (LL29 cells) and human alveolar epithelial cells (A549 cells) were treated with existing approved drugs, and the cell viability 24 hours later was evaluated by an MTT method.

[3] = system: LL29 cells; assay: TGF-β1-dependent activation of lung fibroblast cells: α-SMA and Col1a1 mRNA by real-time RT-PCR; format: cell-based, human
Experimental: Total RNA of cells was extracted by using RNeasy kit (Qiagen). 2.5 μg of total RNA was subjected to reverse transcription reaction in accordance with the protocol from Takara Bio Inc by using a first-strand cDNA synthesis kit (Takara Bio Inc). The synthesized cDNA was analyzed with a CFX96 (trademark) real time system by using SsoFast EvaGreen Supermix. For equalizing the total RNA amounts in the reactions, a glyceraldehyde-3-phosphate dehydrogenase (GAPDH) gene was used as an internal standard.
as §1
(§3) As described above, myofibroblast cells played an important role on pulmonary fibrosis in patients with IPF and bleomycin-induced pulmonary fibrosis. Thus, with attention focused on myofibroblast cells, the effects of idebenone and COQ10 were examined. […] Thus, the effects of idebenone and CoQ10 on TGF-β1-dependent activation of lung fibroblast cells (differentiation into myofibroblast cells) were compared. LL29 cells were treated with idebenone or CoQ10, and then treated with TGF-β1, and the amount of collagen in the medium was measured. […] Next, the effect of idebenone was examined by using the levels of α-SMA and mRNA of collagen as indices.

[4] = system: BLM pulmonary injury model mouse; assay: BLM pulmonary injury model: lung function (elastance, FVC) with ventilator for mice; format: in vivo
Experimental: (§4) On day 1, BLM was administered via the airway to a normally reared male ICR mouse to prepare a BLM pulmonary injury model mouse.
The lung function was measured in accordance with previous literature by using a computer-controlled ventilator for small animals (FlexiVent; SCIREQ, Montreal, Canada). A metal tube (with an outer diameter of 1.27 mm and an inner diameter of 0.84 mm) was inserted by 8 mm into a mouse anesthetized with chloral hydrate (500 mg/kg), and the mouse was caused to breathe mechanically at a rate of 150 breaths/min with a tidal volume of 8.7 ml/kg and a positive end-expiratory pressure ventilation of 2-3 cm H2O.
The total respiratory elastance and the tissue elastance were measured by the snap shot and the forced oscillation technique, respectively. The forced vital capacity was measured in accordance with Chest 142, 1011-1019 (2012) by using the computer-controlled ventilator for small animals and a negative pressure reservoir (SCIREQ, Montreal, Canada). All the data was analyzed by using FlexiVent software (version 5.3; SCIREQ, Montreal, Canada).

[5] = system: LL29 cells; assay: TGF-β1-dependent activation of lung fibroblast cells: amount of collagen in the medium; format: cell-based, human; conditions: LL29 cells treated with drug, then TGF-β1
Experimental: as §1, §3

[6] = system: BLM pulmonary injury model mouse; assay: BLM pulmonary injury model: α-SMA immunostaining of the lung (myofibroblast cells); format: in vivo; conditions: FIGS. 7A and 7B
Experimental: as §4
A method for immunostaining with α-SMA was carried out by blocking the section with 2.5% goat serum for 10 minutes, and then performing a primary antibody treatment (against α-SMA, 1:100 dilution). At 12 hours later, the section was incubated with Alexa Fluor 594 goat anti-rabbit immunoglobulin G and DAPI for 2 hours. Thereafter, the section was encapsulated by using VECTA SHIELD. The section was photographed by using a microscope (Olympus DP71).
An α-SMA-positive region was quantitatively determined by using Image J software (National Institutes of Health, Bethesda, MD) The number of 8-OHdG-positive cells was quantitatively determined by using Definiens Tissue Studio (trademark) software (CTC Life Science Corporation, Tokyo, Japan).

[7] = system: A549 cells (human alveolar epithelial cells); assay: LDH activity in the medium (cell death), A549 cells; format: cell-based; conditions: 150 μM
Experimental: as §1, §2
(§5) More minute doses than the doses used during screening test were applied to examine the cell death inducing action of idebenone and to simultaneously conduct a screening reproducibility experiment.

[8] = system: A549 cells; assay: Number of living and dead cells by trypan blue staining, A549 cells; format: cell-based, human
Experimental: as §1, §2
(§6) Thus, the present inventors measured the number of living cells and the number of dead cells with the aid of trypan blue staining.

[9] = system: LL29 cells; assay: LDH activity in the medium (cell death), LL29 cells; format: cell-based, human; conditions: 150 μM
Experimental: as §1, §2, §5

[10] = system: LL29 cells; assay: Number of living and dead cells by trypan blue staining, LL29 cells; format: cell-based, human
Experimental: as §1, §2, §6

[11] = airway administration, day 10 to day 19 (FIG. 10D)
[12] = oral, once a day day 10 to day 18, pirfenidone 200 mg/kg, nintedanib 30 mg/kg, tolperisone 5 mg/kg
[13] = airway administration, comparison idebenone / CoQ10 (FIGS. 5A to 5C)
[14] = oral, 15 or 50 mg/kg once a day day 10 to day 18
[15] = airway administration, pre-administration (FIG. 3D)

Cc1ccc(C(=O)C(C)CN2CCCCC2)cc1 (centres unmarked) [tolperisone]
BLM-dependent increase in amount of hydroxyproline ([1]; airway administration, day 10 to day 19 (FIG. 10C)): hardly suppressed such an increase
BLM-dependent pulmonary injuries and collagen accumulation ([1]; airway administration, day 10 to day 19 (FIGS. 10A and 10B)): slightly suppressed such injuries and collagen accumulation
BLM-dependent increase in amount of hydroxyproline ([1]; intraperitoneal administration): markedly suppressed such an increase
BLM-dependent pulmonary injuries and collagen accumulation ([1]; intraperitoneal administration): suppressed such injuries and collagen accumulation
BLM-dependent increase in amount of hydroxyproline ([1]; oral administration (FIG. 11C)): markedly suppressed such an increase
BLM-dependent pulmonary injuries and collagen accumulation ([1]; oral administration (FIGS. 11A and 11B)): suppressed such injuries and collagen accumulation
BLM-dependent pulmonary injuries ([1]; oral, day 20): markedly improved BLM pulmonary injuries
fibroblast cell-selective decrease in cell viability / cell death (LL29 versus A549) [2]: decreased the cell viability of LL29 cells (lung fibroblast cells) at a concentration lower than a concentration at which the cell viability of A549 cells (alveolar epithelial cells) decreased
difference in IC50 (concentration required to decrease the cell viability by 50%) between LL29 and A549 cells [2]: particularly marked difference in IC50 value
TGF-β1-induced expression of α-SMA and Col1a1 mRNA [3]: suppressed such induction
BLM-dependent decrease in FVC [4, 11]: suppressed such a decrease
BLM-dependent increase in total respiratory system elastance and tissue elastance [4, 11]: tended to suppress such an increase
BLM-dependent decrease in FVC ([4]; intraperitoneal administration): suppressed such a decrease
BLM-dependent increase in total respiratory system elastance and tissue elastance ([4]; intraperitoneal administration): suppressed such an increase
BLM-dependent decrease in FVC ([4]; oral administration (FIG. 11D)): suppressed such a decrease
BLM-dependent increase in total respiratory system elastance and tissue elastance ([4]; oral administration (FIG. 11D)): suppressed such an increase
BLM-dependent decrease in FVC [4, 12]: improved such changes
BLM-dependent increase in total respiratory system elastance and tissue elastance [4, 12]: improved such changes

COC1=C(OC)C(=O)C(C/C=C(\C)CC/C=C(\C)CC/C=C(\C)CC/C=C(\C)CC/C=C(\C)CC/C=C(\C)CC/C=C(\C)CC/C=C(\C)CC/C=C(\C)CCC=C(C)C)=C(C)C1=O [CoQ10]
TGF-β1-induced increase in amount of collagen in the medium [5]: did not suppress such an increase
pulmonary injury and fibrosing by bleomycin [1, 13]: suppressed
bleomycin-induced increase in number of α-SMA-positive cells (myofibroblast cells) of the lung [6]: did not exhibit such a suppressing effect
TGF-β1-induced expression of α-SMA and Col1a1 mRNA [3]: did not suppress such induction

Cc1ccc(=O)n(-c2ccccc2)c1 [pirfenidone]
BLM-dependent pulmonary injuries ([1]; oral, day 20): hardly suppressed BLM-dependent pulmonary injuries
fibroblast cell-selective decrease in cell viability / cell death (LL29 versus A549) [2]: did not induce fibroblast cell-selective cell death; also recorded: hardly induced fibroblast cell-selective cell death

C[C@H](CN1CCCC1)C(=O)c1ccc(C(F)(F)F)cc1 [lanperisone]
fibroblast cell-selective decrease in cell viability / cell death (LL29 versus A549) [2]: induced fibroblast cell-selective cell death

CCc1ccc(C(=O)C(C)CN2CCCCC2)cc1 (centres unmarked) [eperisone]
BLM-dependent increase in amount of hydroxyproline ([1]; intraperitoneal administration): tendency of suppression
BLM-dependent pulmonary injuries and collagen accumulation ([1]; intraperitoneal administration): suppressed
BLM-dependent pulmonary injuries and collagen accumulation ([1]; oral, 15 or 50 mg/kg once a day day 10 to day 18, BLM 1 mg/kg, day 20): suppressed BLM-dependent pulmonary injuries and collagen accumulation in a concentration-dependent manner
fibroblast cell-selective decrease in cell viability / cell death (LL29 versus A549) [2]: decreased the cell viability of LL29 cells at a concentration lower than a concentration at which the cell viability of A549 cells decreased
TGF-β1-induced expression of α-SMA and Col1a1 mRNA [3]: suppressed such induction
BLM-dependent decrease in FVC ([4]; intraperitoneal administration): suppressed
BLM-dependent increase in total respiratory system elastance and tissue elastance ([4]; intraperitoneal administration): suppressed
BLM-dependent decrease in FVC [4, 14]: improved such changes in a concentration-dependent manner
BLM-dependent increase in total respiratory system elastance and tissue elastance [4, 14]: improved such changes in a concentration-dependent manner

CCc1ccc(C(=O)C(C)CN2CCCC2)cc1 (centres unmarked) [inaperisone]
fibroblast cell-selective decrease in cell viability / cell death (LL29 versus A549) [2]: induced fibroblast cell-selective cell death

Clc1ccc2nsnc2c1NC1=NCCN1 [tizanidine]
fibroblast cell-selective decrease in cell viability / cell death (LL29 versus A549) [2]: did not exhibit such an effect

COC(=O)c1ccc2c(c1)NC(=O)/C2=C(\Nc1ccc(N(C)C(=O)CN2CCN(C)CC2)cc1)c1ccccc1 [nintedanib]
BLM-dependent pulmonary injuries ([1]; oral, day 20): hardly suppressed BLM-dependent pulmonary injuries
fibroblast cell-selective decrease in cell viability / cell death (LL29 versus A549) [2]: did not induce fibroblast cell-selective cell death; also recorded: hardly induced fibroblast cell-selective cell death

COC1=C(OC)C(=O)C(CCCCCCCCCCO)=C(C)C1=O [idebenone]
LDH released into the medium [7]: little LDH was released
TGF-β1-induced increase in amount of collagen in the medium [5]: suppressed such an increase
effect of drug alone on pulmonary fibrosing and the respiratory function ([1]; airway administration, 18.8 mg/kg, alone (without BLM)): did not affect pulmonary fibrosing and the respiratory function
pulmonary injury and fibrosing by bleomycin [1, 13]: suppressed
BLM-dependent increase in Ashcroft score ([1]; airway administration, pre-administration (FIG. 3B)): markedly suppressed such an increase
BLM-dependent increase in amount of hydroxyproline ([1]; airway administration, pre-administration (FIG. 3C)): markedly suppressed such an increase
BLM-dependent pulmonary injuries and collagen accumulation ([1]; airway administration, pre-administration day 1 to day 7 (FIG. 3A)): markedly suppressed such injuries and collagen accumulation
pulmonary injury and fibrosing by bleomycin ([1]; therapeutic effects, comparison idebenone / CoQ10 (FIGS. 6A to 6C)): suppressed
pulmonary injury and fibrosing 20 days after administration of BLM ([1]; therapeutic: airway administration started 10 days after BLM (FIGS. 4A to 4C)): markedly suppressed pulmonary injury and fibrosing
fibroblast cell-selective decrease in cell viability / cell death (LL29 versus A549) [2]: decreased the cell viability of LL29 cells (lung fibroblast cells) at a concentration lower than a concentration at which the cell viability of A549 cells (alveolar epithelial cells) decreased
difference in IC50 (concentration required to decrease the cell viability by 50%) between LL29 and A549 cells [2]: particularly marked difference in value of IC50
bleomycin-induced increase in number of α-SMA-positive cells (myofibroblast cells) of the lung [6]: markedly suppressed such an increase
TGF-β1-induced expression of α-SMA and Col1a1 mRNA [3]: suppressed such induction
BLM-dependent decrease in FVC [4, 15]: tended to suppress such a decrease
BLM-dependent increase in total respiratory system elastance and tissue elastance [4, 15]: suppressed such an increase
BLM-dependent decrease in respiratory function ([4]; therapeutic: airway administration started 10 days after BLM (FIG. 4D)): markedly suppressed a BLM-dependent decrease in respiratory function
concentration at which suppression of cell proliferation started [8]: 175 µM
induction of cell death ([8]; examined concentrations): did not induce cell death at examined concentrations
LDH released into the medium [9]: LDH was released into the medium
concentration at which induction of cell death started [10]: 175 µM
concentration at which suppression of proliferation started [10]: 75 µM
